Results as given in PMC9704104, “Towards safer anti-inflammatory therapy: synthesis of new thymol–pyrazole hybrids as dual COX-2/5-LOX inhibitors” (Journal of Enzyme Inhibition and Medicinal Chemistry, 2022).
“And” between values parts separate entries of the source, which are not always exact repeats. Equal entries are not always repeated. “Also recorded” adds a separate entry of the source.

How the values were obtained:
gastric mucosa = assay: In vivo gastric ulcerogenic activity (gross examination of gastric mucosa); settings: fasted rats, 60 mg/kg orally, six hours after treatment, 60 mg/kg
Method: Compounds were evaluated for acute gastric ulcerogenic effect in adult female Wistar rats. Gross examination was performed for any evidence of hyperaemia, haemorrhage, definite haemorrhagic erosion, or ulcer according to reported procedures[49]^,[51]
Compounds were evaluated for acute gastric ulcerogenic effect in adult female Wistar rats. Rats (150–250 g)
were divided into groups of six rats each and test compounds, references or DMSO as control were
administered orally at a dose of 60 mg/kg body weight (three times the previously used dose). Six hours after
the treatment they were sacrificed under deep ether anesthesia and their stomachs were removed and opened
through greater curvature, washed under running water and fixed in saline solution. Gross examination was
performed for any evidence of hyperemia, hemorrhage, definite hemorrhagic erosion or ulcer 6, 7 (Approved
The degree of ulcerogenicity was determined by viewing the gastric epithelial ulceration using a 5x
magnifying lens and rated by ulcer score.
Ulcer score was used to grade the incidence and severity of the lesions such as:
1) Shedding of epithelium—10
2) Petechial and frank hemorrhages—20
4) More than two ulcers—40

[1] = system: formalin-induced rat paw oedema; assay: Formalin-induced paw oedema test (acute inflammation model); assay type: in vivo; settings: for Volume of oedema (ml) 4h: 4 h after formalin; for Volume of oedema (ml) 4h / inhibition in vivo at 5 mg/kg / % Relative potency (4h) celecoxib / % Relative potency (4h) diclofenac / Volume of oedema (ml) 0: individual rats 1-3; for Volume of oedema (ml) 4h / inhibition in vivo at 5 mg/kg / % inhibition of paw oedema compared with reference drugs (in words) / Volume of oedema (ml) 0: 5 mg/kg orally; for inhibition in vivo at 5 mg/kg: Rattus norvegicus, po, read-out: % Inhibition of oedema volume; for inhibition in vivo at 5 mg/kg / % inhibition of paw oedema compared with reference drugs (in words): 4 h; for % Relative potency (4h) celecoxib, Mean ± SD / % Relative potency (4h) celecoxib: relative to % inhibition of celecoxib at 4 h; for % Relative potency (4h) celecoxib, Mean ± SD / % Relative potency (4h) diclofenac, Mean ± SD: group mean ± SD; for % Relative potency (4h) diclofenac, Mean ± SD / % Relative potency (4h) diclofenac: relative to % inhibition of diclofenac at 4 h; for % inhibition of paw oedema compared with reference drugs (in words): comparison with celecoxib or diclofenac sodium
Method: Animals Adult female albino rats weighing 150-250 g were used (Experimental Animal Centre in Alexandria University). All animals accessed to food and water ad libitum and were housed in 12 h dark/light cycle in a controlled condition at 23-250C. They were allowed to acclimatize for 1 week prior to experimentation. Procedures involving animals and their care were conducted in conformity with the Guide for the Care and Use of Laboratory Animals published by US National Institute of Health4 (NIH publication No. 83-23, revised) and following the ethical guidelines of Alexandria University on laboratory animals. In all tests, adequate considerations were adopted to reduce pain or discomfort of animals (Approved by AlexU-IACUC) 3. […]
Formalin-induced paw edema test (acute inflammation model):
A solution of freshly prepared formalin 5% was used as a phlogistic agent. A mark was made on the lateral malleolus of the rats’ paws delineating the injection sites. The initial volume of paw was measured by means of digital calibrated Vernier caliper .
After 45 minutes, 40 μl formalin were injected subcutaneously into the sub plantar tissue of the right hind paw of all groups under light ether anesthesia . An equal volume of saline was injected into the left hind paw and served as internal control for the degree of inflammation in the right hind paw. 5, 6 The volume of paw was measured in different treatment groups, 4 h following the formalin injection and the amount of increase in paw volume (edema volume) was calculated by subtracting the volumes before and 4 h after the injection of formalin. Edema was expressed as an increase in the volume of paw, and the percentage of edema inhibition (or percent protection against inflammation) for each rat and each group was calculated according to the following equation: […]
Where Vt is the mean volume of edema at specific time interval (4 h) and Vo is the mean volume of edema […]
Relative potency of the tested compounds was expressed as % inhibition of edema for the tested compounds

5-LOX = assay: In vitro 5-LOX inhibitory assay (Abnova 5-LOX inhibitor screening assay kit); assay type: biochemical
Source text: The newly synthesised compounds were screened for their ability to inhibit 5-LOX enzymes. […] (Page: S21, Supplementary file). […]
In vitro LOX inhibitory assay
Inhibitor Screening Assay Kit detects and measures the hydroperoxides produced in the lipoxygenation reaction using a purified LOX. The detection reaction is equally sensitive to hydroperoxides at various positions within the fatty acid and will work with fatty acids of any carbon length. It is thus a general detection method for 5-LOX and can be used to screen libraries of compounds for those which inhibit 5 -LOX enzymes.
1) Blank Wells- add 100 µL of assay buffer to at least two wells.
2) Positive Control Wells- Lipoxygenase (15-LO standard) add 90 µL 15-LO and 10 µL of assay buffer […]
3) 100% Initial Activity Wells- add 90 µL 15-LO and 10 µL of solvent (DMSO) (the same solvent to dissolve the inhibitor) to two wells. The 100% initial activity wells should result in approximately 10 […]
4) Inhibitor Wells- add 90 µL of sample and I10 µL of inhibitor to two wells.
5) Initiate the reaction by adding 10 µL of substrate (either arachidonic acid or linoleic acid) to all the wells. Place the 96-well plate on a shaker for at least five minutes.
6) Add 100 µL of chromogen to each well to stop enzyme catalysis and develop the reaction. Cover with a plate cover and place the 96-well plate on a shaker for at least five minutes.
7) Remove the cover and read the absorbance at 490-500 nm using a plate reader.
Inhibitors were dissolved in DMSO. The inhibitors were added to the assay in a final volume of 10 µL before initiating with substrate. Three concentrations were prepared (25, 50 and 100 µM) to determine the concentration produced 50% enzyme inhibition.
2) The absorbance of blank wells was subtracted from absorbance of the 100% Initial activity and the […]

COX-1 = molecular target: T1, COX-1 (Ovis aries, UniProt P05979); assay: In vitro COX-1 inhibitory assay (Cayman colorimetric COX (ovine) inhibitor screening assay kit); assay type: biochemical; settings: mean of three replicates ± SD
T1 construct: purchased Cayman chemicals 560131
T1 sequence (P05979 25-600): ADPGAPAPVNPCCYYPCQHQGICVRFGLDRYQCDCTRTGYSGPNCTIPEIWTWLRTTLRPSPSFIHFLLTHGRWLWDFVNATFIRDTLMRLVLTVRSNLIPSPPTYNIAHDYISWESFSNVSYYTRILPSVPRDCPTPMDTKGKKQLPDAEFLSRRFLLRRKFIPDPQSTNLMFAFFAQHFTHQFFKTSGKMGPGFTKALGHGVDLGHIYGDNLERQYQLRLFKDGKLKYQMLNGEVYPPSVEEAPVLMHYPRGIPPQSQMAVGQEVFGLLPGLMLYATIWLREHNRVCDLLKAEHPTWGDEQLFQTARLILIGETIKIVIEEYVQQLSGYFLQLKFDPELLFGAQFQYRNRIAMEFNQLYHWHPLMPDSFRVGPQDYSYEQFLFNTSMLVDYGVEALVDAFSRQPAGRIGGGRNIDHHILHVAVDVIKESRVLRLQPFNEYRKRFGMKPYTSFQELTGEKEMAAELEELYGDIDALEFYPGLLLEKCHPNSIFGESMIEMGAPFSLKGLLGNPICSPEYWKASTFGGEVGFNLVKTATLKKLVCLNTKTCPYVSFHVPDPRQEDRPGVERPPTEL
Method: (Page: S20, Supplementary file).
Anti-inflammatory activity
In vitro COX-1 and COX-2 inhibitory assay […]
supplied by Cayman chemicals, Ann Arbor, MI, USA according to reported method 1. The colorimetric COX inhibitor screening assay utilizes the peroxidase component of cyclooxygenase. The peroxidase activity was assayed calorimetrically by monitoring the appearance of oxidized N,N,N',N'-tetramethyl-1,4-phenylenediamine (TMPD) at 590nm. The appearance of reagent was carried out following the instructions […]
The half- maximal inhibitor concentrations (IC50µM) were determined and the selectivity index (SI) values were calculated as IC50 (COX-1)/IC50 (COX-2).
1) Background wells- 160 µL of assay buffer and 10 µL of heme were added to background wells.
2) The 100% Initial activity wells- 150 µL of assay buffer, 10 µL of heme and 10 µL of enzyme (COX-1 or COX-2) were added.
3) Inhibitor well- 150 µL of assay buffer, 10 µL of heme and 10 µL of enzyme were added.
4) 10 µL of inhibitor (3 concentrations) in DMSO was added to the inhibitor wells to yield a final […]
5) 10 µL of solvent (DMSO) was added to the 100% Initial activity wells and background wells.
7) 20 µL of colorimetric substrate solution (TMPD) was added to all wells.
8) 20 µL of arachidonic acid was added to all wells to yield a final concentration of 100 µM.
10) The absorbance was measured at 590 nm using a plate reader.
The calculations were carried out in the following manner:
1) The average absorbance of all samples was determined.
2) The absorbance of background wells was subtracted from absorbance of the 100% Initial activity […]
3) Percent inhibition = (100% Initial activity – Inhibitor wells/ 100% Initial activity)∗ 100 […]
Place the 96-well plate on a shaker for at least five minutes. […]

| SMILES | melting point [°C] | Gross appearance of gastric mucosa (ulcerogenic potential) (gastric mucosa) | Volume of oedema (ml) 4h ([1]; 5 mg/kg) [mL] | inhibition in vivo at 5 mg/kg [1] [%] | % Relative potency (4h) celecoxib, Mean ± SD [1] [%] | % Relative potency (4h) celecoxib [1] | % Relative potency (4h) diclofenac, Mean ± SD [1] [%] | % Relative potency (4h) diclofenac [1] | IC50 (5-LOX) [µM] | IC50 (COX-1) [µM] | % inhibition of paw oedema compared with reference drugs (in words) ([1]; 5 mg/kg) | Volume of oedema (ml) 0 ([1]; 5 mg/kg) [mL] | % inhibition of paw oedema compared with reference drugs (in words) [1] |
| --- | --- | --- | --- | --- | --- | --- | --- | --- | --- | --- | --- | --- | --- |
| COc1ccc(-c2cc(C(=O)NN=Cc3c(C)ccc(C(C)C)c3O)[nH]n2)cc1 [Compound 4c, N'-(2-Hydroxy-3-isopropyl-6-methylbenzylidene)-3–(4-methoxyphenyl)-1H-pyrazole-5-carbohydrazide] | 246 to 248 | variable degrees of hyperaemia; also recorded: Hyperemia without gross ulceration | 6.20 | 66.2 | 165.7 ± 20.01 | 188.50% and 151.20% and 157.30% | 115.6 ± 21.54 | 140.0% and 107.60% and 99.20% | 2.91 ± 0.068 | 10.22 ± 0.046 | – | – | – |
| Cc1ccc(C(C)C)c(O)c1C=NNC(=O)c1cc(-c2ccc(Br)cc2)n(-c2ccc(S(N)(=O)=O)cc2)n1 [Compound 8b, 4-(5-(4-Bromophenyl)-3-(2-(2-hydroxy-3-isopropyl-6-methylbenzylidene)hydrazine-1-carbonyl)-1H-pyrazol-1-yl)benzene sulphonamide] | – | No gross ulceration | – | 40.1 | – | 114.10% and 86.90% and 93.30% | 68.50 ± 14.20 | 84.80% and 61.90% and 58.80% | 1.58 ± 0.026 | 13.61 ± 0.096 | nearly equal activity to celecoxib; also recorded: slightly less % inhibition than that of Diclofenac sodium | 5.02 | – |
| COc1ccc(-c2cc(C(=O)NN=Cc3c(C)ccc(C(C)C)c3O)nn2-c2ccc(S(N)(=O)=O)cc2)cc1 [Compound 8c, 4-(3-(2-(2-Hydroxy-3-isopropyl-6-methylbenzylidene)hydrazine-1-carbonyl)-5-(4-methoxyphenyl)-1H-pyrazol-1-yl)benzenesulfonamide] | 245 to 247 | – | 5.80 | 60.4 | 170.0 ± 9.73 | 171.80% and 159.50% and 178.70% | 117.9 ± 8.39 | 127.60% and 113.60% and 112.60% | 1.91 ± 0.053 | 12.87 ± 0.097 | – | – | – |
| Cc1ccc(C(C)C)c(O)c1C=NNC(=O)c1cc(-c2ccccc2)n(-c2ccc(Cl)cc2)n1 [Compound 8g, 1-(4-Chlorophenyl)-N'-(2-hydroxy-3-isopropyl-6-methylbenzylidene)-5-phenyl-1H-pyrazole-3-carbohydrazide] | – | No gross ulceration | – | 52.7 | 148.6 ± 2.99 | 150.0% and 145.20% and 150.70% | 103.3 ± 8.20 | 111.40% and 103.40% and 95.0% | 1.6 ± 0.042 | 12.1 ± 0.16 | – | – | – |
| Cc1ccc(C(C)C)c(O)c1C=NNC(=O)c1cc(-c2ccc(Br)cc2)n(-c2ccc(Cl)cc2)n1 [Compound 8h, 5-(4-Bromophenyl)-1-(4-chlorophenyl)-N'-(2-hydroxy-3-isopropyl-6-methylbenzylidene)-1H-pyrazole-3-carbohydrazide] | – | variable degrees of hyperaemia; also recorded: Hyperemia without gross ulceration | – | 53.6 | 140.9 ± 20.93 | 152.60% and 116.70% and 153.30% | 97.67 ± 15.13 | 113.30% and 83.10% and 96.60% | 1.97 ± 0.026 | 12.6 ± 1.36 | – | 5.02 | slightly less % inhibition than that of Diclofenac sodium |
| COc1ccc(-c2cc(C(=O)NN=Cc3c(C)ccc(C(C)C)c3O)nn2-c2ccc(Cl)cc2)cc1 [Compound 8i, 5-(4-Methoxyphenyl)-1-(4-chlorophenyl)-N'-(2-hydroxy-3-isopropyl-6-methylbenzylidene)-1H-pyrazole-3-carbohydrazide] | 218 to 220 | variable degrees of hyperaemia; also recorded: Hyperemia without gross ulceration | – | 67.6 | – | 192.30% and 183.30% and 210.70% | 135.4 ± 6.60 | 142.90% and 130.50% and 132.80% | 2.78 ± 0.016 | 12.6 ± 0.46 | – | 5.30 | double % inhibition exhibited by Celecoxib |
